Common to all, as to type: functional
The test system of test [1] is Radical scavenging activity. Put plainly: Antioxidant activity assessed as DPPH radical scavenging activity by spectrophotometric analysis. Background: DPPH is a stable violet radical that fades when it is reduced.
Test [2] deals with Klebsiella pneumoniae. Nature of the test: Antibacterial activity against Klebsiella pneumoniae at 1 mg/ml after 24 hr by agar well diffusion method. The note with it: for zone of inhibition at 1000 µg/mL: read-out: IZ. For orientation: A growth-free zone around the sample is the usual read-out of agar diffusion tests.
The subject of test [3] is Pseudomonas aeruginosa. Put plainly: Antibacterial activity against Pseudomonas aeruginosa at 1 mg/ml after 24 hr by agar well diffusion method. The note with it: for zone of inhibition at 1000 µg/mL: read-out: IZ.
In test [4] the test system is Staphylococcus aureus. Nature of the test: Antibacterial activity against Staphylococcus aureus at 1 mg/ml after 24 hr by agar well diffusion method. The note with it: for zone of inhibition at 1000 µg/mL: read-out: IZ.
Test [5] has as its system Aspergillus oryzae. Put plainly: Antifungal activity against Aspergillus oryzae at 1 mg/ml after 72 hr by agar well diffusion method. The note with it: read-out: IZ.
In test [6] the test system is Aspergillus terreus. Put plainly: Antifungal activity against Aspergillus terreus at 1 mg/ml after 72 hr by agar well diffusion method. The note with it: read-out: IZ.
Test [7] deals with Aspergillus niger. Nature of the test: Antifungal activity against Aspergillus niger at 1 mg/ml after 72 hr by agar well diffusion method. Conditions: read-out: IZ.
Test [8] has as its system Radical scavenging activity. Put plainly: Antioxidant activity assessed as DPPH radical scavenging activity at 100 ug/ml by spectrophotometric analysis.

Converted amounts (≈) assume the structure as drawn.

Take `COc1ccc(O)c(C(C)(C)C)c1.COc1ccc(O)cc1C(C)(C)C` [BUTYLATED HYDROXYANISOLE]: in test [1], the IC50 amounted to 14.35 µg/mL.
`Cc1ccc2[nH]c(-c3ccccc3)c(-c3nc(NN)nc(NN)c3C#N)c2c1`: the zone of inhibition at 1000 µg/mL in test [2] worked out at 12 mm; in test [3], 10 mm; in test [4], 10 mm; in test [5], 9 mm; in test [6] it was 11 mm; in test [7] it was 11 mm.
`Cc1ccc2[nH]c(-c3ccccc3)c(-c3[nH]c(=S)[nH]c(=O)c3C#N)c2c1`: the zone of inhibition at 1000 µg/mL is 11 mm in test [2]; 10 mm in test [3]; 12 mm in test [4]; 11 mm in test [5]; 11 mm in test [6]; 13 mm in test [7].
With `Cc1ccc2[nH]c(-c3ccccc3)c(-c3nc(NN)nc4[nH]nc(N)c34)c2c1`, the zone of inhibition at 1000 µg/mL stood at 13 mm in test [2]; 12 mm in test [3]; 11 mm in test [4]; 9 mm in test [5]; 10 mm in test [6]; 10 mm in test [7].
`Cc1ccc2[nH]c(-c3ccccc3)c(-c3c(C#N)c4nnnn4c4nnnn34)c2c1`: the zone of inhibition at 1000 µg/mL in test [2] came out at 11 mm; in test [3] it was 10 mm; in test [4] it was 10 mm; in test [5], 9 mm; in test [6] it was 12 mm; in test [7], 9 mm.
Turning to `NNc1nc(-c2c(-c3ccccc3)[nH]c3ccccc23)c2c(N)n[nH]c2n1`, the zone of inhibition at 1000 µg/mL worked out at 12 mm in test [2]; 11 mm in test [3]; 12 mm in test [4]; 12 mm in test [5]; 10 mm in test [6]; 12 mm in test [7].
As to `N#Cc1c(-c2c(-c3ccccc3)[nH]c3ccccc23)[nH]c(=S)[nH]c1=O`, the zone of inhibition at 1000 µg/mL stood at 12 mm in test [2]; 11 mm in test [3]; 11 mm in test [4]; 10 mm in test [5]; 10 mm in test [6]; 10 mm in test [7].
Consider `N#Cc1c(-c2c(-c3ccccc3)[nH]c3ccccc23)[nH]c(=S)[nH]c1=S`, for which the zone of inhibition at 1000 µg/mL in test [2] came out at 8 mm; in test [3], 7 mm; in test [4], 8 mm; in test [5], 10 mm; in test [6], 11 mm; in test [7], 11 mm.
`N#Cc1c(-c2c(-c3ccccc3)[nH]c3ccc(Cl)cc23)[nH]c(=S)[nH]c1=S`: the zone of inhibition at 1000 µg/mL in test [2] came to 9 mm; in test [3], 10 mm; in test [4], 12 mm; in test [5], 11 mm; in test [6], 10 mm; in test [7], 11 mm.
As to `NNc1nc(-c2c(-c3ccccc3)[nH]c3ccc(Cl)cc23)c2c(N)n[nH]c2n1`, the zone of inhibition at 1000 µg/mL in test [2] was 9 mm; in test [3] it was 13 mm; in test [4], 13 mm; in test [5], 13 mm; in test [6], 10 mm; in test [7], 9 mm.
Take `N#Cc1c(NN)nc(NN)nc1-c1c(-c2ccccc2)[nH]c2ccc(Cl)cc12`: the zone of inhibition at 1000 µg/mL stood at 10 mm in test [2]; 13 mm in test [3]; 11 mm in test [4]; 10 mm in test [5]; 10 mm in test [6]; 8 mm in test [7].
`Cc1ccc2[nH]c(-c3ccccc3)c(-c3[nH]c(=S)[nH]c(=S)c3C#N)c2c1`: the zone of inhibition at 1000 µg/mL came to 8 mm in test [2]; 10 mm in test [3]; 9 mm in test [4]; 9 mm in test [5]; 10 mm in test [6]; 9 mm in test [7].
As for `N#Cc1c(-c2c(-c3ccccc3)[nH]c3ccc(Cl)cc23)n2nnnc2n2nnnc12`, the zone of inhibition at 1000 µg/mL in test [2] was 13 mm; in test [3], 12 mm; in test [4] it was 14 mm; in test [5], 10 mm; in test [6], 11 mm; in test [7], 13 mm.
On to `N#Cc1c(-c2c(-c3ccccc3)[nH]c3ccc(Cl)cc23)[nH]c(=S)[nH]c1=O`, for which the zone of inhibition at 1000 µg/mL came out at 14 mm in test [2]; 10 mm in test [3]; 14 mm in test [4]; 12 mm in test [5]; 9 mm in test [6]; 10 mm in test [7]. In test [1], the IC50 amounted to 16.43 µg/mL (≈ 43.4 µM). Further, the Activity in test [8] was found to be 79.7%.
GENTAMICIN: the inhibition zone (IZ) in test [2] is 15 mm; in test [3], 16 mm; in test [4], 15 mm.
For `N#Cc1c(NN)nc(NN)nc1-c1c(-c2ccccc2)[nH]c2ccccc12`, the zone of inhibition at 1000 µg/mL in test [2] was determined as 11 mm; in test [3], 10 mm; in test [4], 8 mm; in test [5] it was 10 mm; in test [6] it was 11 mm; in test [7], 10 mm.
Regarding `N#Cc1c(-c2c(-c3ccccc3)[nH]c3ccccc23)n2nnnc2n2nnnc12`, the zone of inhibition at 1000 µg/mL in test [2] was 12 mm; in test [3], 14 mm; in test [4] it was 14 mm; in test [5], 7 mm; in test [6], 10 mm; in test [7] it was 10 mm.
As to `CC(C)(C)c1cc(O)ccc1O` [E319], the IC50 in test [1] was determined as 14.46 µg/mL (≈ 87 µM).
Consider `OC(Cn1cncn1)(Cn1cncn1)c1ccc(F)cc1F` [FLUCONAZOLE], for which the figures for the zone of inhibition at 1000 µg/mL in test [5], in test [6] and in test [7] were 14 mm, 15 mm and 14 mm, respectively.

One may read the IC50 as the concentration needed to halve the response being measured.

The record behind these values is ChEMBL document CHEMBL3045335, “Synthesis, antimicrobial, and antioxidant activities of some new indole analogues containing pyrimidine and fused pyrimidine systems” (Med Chem Res, 2012).
